We go through 2 molecules from patent publication US10611765B2, “Pyrrolopyrimidine derivatives as Mps1/TTK kinase inhibitors” (Ohio State Innovation Foundation, priority 2014, dated 2020).

Read-outs that look alike come from different tables or passages of the source.

One series concerns HCC1937. Nature of the series: MTS anti-proliferative assay, HCC1937. The following applies: Homo sapiens, 168 h, HCC1937, TNBC, basal, treatment for 7 days. The class given is cell-based. How it is done:
(§1) The anti-proliferative effects and IC50 values of the compounds in the BC cell line panel were determined by MTS assay.
(§2) The cells, except Sk-Br-3, AU565 and BT-474 were maintained in a mixture of Dulbecco's modified Eagle's medium and Ham's F12 medium (1:1) (DMEM/F12) without phenol red supplemented with 5% fetal bovine serum (FBS) and 1× antibiotic-antimycotic (100 U/mL penicillin G sodium, 100 μg/mL streptomycin sulfate and 0.25 μg/mL amphotericin B) and were plated separately in flasks in a humidified incubator (5% CO2: 95% air, 37° C.). The media used for Sk-Br-3, AU565 and BT-474 cell lines was described in (1) Brueggemeier et al., J. Steroid Biochem. Mol. Biol., 2005; 95:129-136; and (2) Diaz-Cruz et al., J. Clin. Endocrinol. Metab., 2005; 90:2563-2570. The media were changed every 2-days. When the cells grew to about 80% confluence, cells were washed twice with calcium- and magnesium-free phosphate-buffered saline (PBS, pH 7.4), and then trypsinized with 0.05% trypsin-5.3 mm EDTA. The trypsinization was stopped by addition of culture medium with 5% FBS. After centrifugation, the dissociated cells were resuspended in the same medium and subcultured into 75-cm^2 culture flasks at a ratio of 1:5 flasks.
(§3) The BC cells were seeded at the density of 1,000 cells per well (100 μL) into 96 well plate in DMEM/F-12 (1:1), supplemented with 5% (v/v) FCS and incubated overnight at 37° C. Test compounds are solubilized in dimethyl sulfoxide (DMSO), diluted in cell culture medium to a range of final assay concentrations of 1 nM to 10 μM, added to cells and incubated for 7 days at 37° C. The medium including the test compound are refreshed at days 3 and 5. The MTS assay are carried out by using the CellTiter 96® AQueous One Solution Cell Proliferation Assay kit following the manufacturer's instruction.
On the technique in general: Formazan colour is commonly taken as a measure of viable cells.

In the next series the test system is BT-474. Nature of the series: MTS anti-proliferative assay, BT-474. The class given is cell-based. The following applies: Homo sapiens, 168 h, BT-474, luminal B, treatment for 7 days. How it is done:
as §1, §2, §3

A further series has as its system AU565. Briefly: MTS anti-proliferative assay, AU565. The following applies: Homo sapiens, 168 h, AU565, luminal, treatment for 7 days. The class given is cell-based. The protocol:
as §1, §2, §3

The subject of another series is MDA-MB-468. Briefly: MTS anti-proliferative assay, MDA-MB-468. The class given is cell-based. The conditions noted are these: Homo sapiens, 168 h, MDA-MB-468, TNBC, basal B, treatment for 7 days. How it is done: as §1, §2, §3
A further series has as its system T47D. Briefly: MTS anti-proliferative assay, T47D. The class given is cell-based. The following applies: Homo sapiens, 168 h, luminal, treatment for 7 days. How it is done:
as §1, §2, §3

The next series relates to MDA-MB-231. Nature of the series: MTS anti-proliferative assay, MDA-MB-231. The class given is cell-based. The conditions noted are these: Homo sapiens, 168 h, MDA-MB-231, TNBC, basal B, treatment for 7 days. How it is done:
as §1, §2, §3

A further series relates to CAL-51. Briefly: MTS anti-proliferative assay, CAL-51. The class given is cell-based. The following applies: Homo sapiens, 168 h, CAL-51, TNBC, basal, treatment for 7 days. The protocol: as §1, §2, §3
Series [1] deals with panel of breast cancer cell lines. Nature of the series: Anti-proliferative assays, panel of BC cell lines (overall statements). The class given is cell-based. The following applies: for potency as compared to Mps1-IN-1: in some or all of the cell based assays in the panel. The protocol: This example describes the development of novel small molecule Mps1/TTK inhibitors as targeted therapies for TNBC and other aggressive BC using drug discovery technologies. Using computational modeling, medicinal chemistry, biochemistry and cell culture assays, the inventors have identified novel small molecules as potential Mps1/TTK inhibitors. The compounds were evaluated in anti-proliferative assays of a panel of 15 BC cell lines and further examined for their ability to inhibit a variety of Mps1-dependent biological functions.
as §1, §2, §3

A further series concerns Sk-Br-3. Nature of the series: MTS anti-proliferative assay, Sk-Br-3. The class given is cell-based. The conditions noted are these: Homo sapiens, 168 h, Sk-Br-3, luminal, treatment for 7 days. How it is done: as §1, §2, §3
Series [2] concerns the target T1, Mps1/TTK kinase (recombinant GST-Mps1) (Homo sapiens, UniProt P33981).
T1 sequence (P33981 1-857): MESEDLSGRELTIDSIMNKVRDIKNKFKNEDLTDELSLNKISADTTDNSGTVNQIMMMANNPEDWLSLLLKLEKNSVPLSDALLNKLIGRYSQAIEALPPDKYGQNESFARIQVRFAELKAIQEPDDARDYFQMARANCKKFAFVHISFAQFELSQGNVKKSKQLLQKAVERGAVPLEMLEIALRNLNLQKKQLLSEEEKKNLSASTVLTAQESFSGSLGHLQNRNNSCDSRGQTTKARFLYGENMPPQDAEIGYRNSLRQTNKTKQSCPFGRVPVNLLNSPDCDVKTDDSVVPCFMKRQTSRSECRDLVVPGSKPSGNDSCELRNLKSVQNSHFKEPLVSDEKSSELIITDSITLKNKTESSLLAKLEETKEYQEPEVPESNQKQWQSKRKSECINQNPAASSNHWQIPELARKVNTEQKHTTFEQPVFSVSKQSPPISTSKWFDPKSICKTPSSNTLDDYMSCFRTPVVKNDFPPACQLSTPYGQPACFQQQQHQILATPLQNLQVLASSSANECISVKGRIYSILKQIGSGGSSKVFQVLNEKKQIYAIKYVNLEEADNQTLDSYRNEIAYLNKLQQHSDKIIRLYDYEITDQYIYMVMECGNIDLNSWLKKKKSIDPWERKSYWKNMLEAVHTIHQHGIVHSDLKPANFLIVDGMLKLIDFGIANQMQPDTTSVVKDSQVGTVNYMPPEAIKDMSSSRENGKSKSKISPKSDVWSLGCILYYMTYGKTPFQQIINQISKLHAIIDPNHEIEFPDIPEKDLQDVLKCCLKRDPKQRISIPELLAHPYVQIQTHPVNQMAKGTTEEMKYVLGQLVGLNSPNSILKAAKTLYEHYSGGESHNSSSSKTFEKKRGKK
Nature of the series: Mps1 in vitro kinase assay with Cetn2 substrate. The class given is biochemical. The conditions noted are these: read-out: IC50, in vitro kinase activity of Mps1. The protocol:
To determine the efficacy of the compounds against Mps1/TTK kinase activity, assays were performed as previously described (11) using recombinant Mps1, Cetn2 (specific substrate), and varying concentration of compound.

The test system of series [3] is normal breast epithelial cells. Nature of the series: Primary cultures of normal breast epithelial cells. The class given is cell-based. The conditions noted are these: up to 20 μM. The protocol:
No notable cytotoxicity was observed after 24 hours of treatment at concentrations as high as 10 μM.

The test system of the next series is Hs578T. Briefly: MTS anti-proliferative assay, Hs578T. The class given is cell-based. The following applies: Homo sapiens, Hs-578T, 168 h, TNBC, basal B, treatment for 7 days. How it is done:
as §1, §2, §3

A further series has as its system MCF-7. Nature of the series: MTS anti-proliferative assay, MCF-7. The class given is cell-based. The following applies: Homo sapiens, MCF7, 168 h, MCF-7, luminal A, treatment for 7 days. How it is done: as §1, §2, §3
Setting [4] is: additional investigations (text to Table 2).

A word on the IC50: it is the point on the concentration scale where inhibition reaches its midpoint. As to `COc1cc(N2CCC(O)CC2)ccc1Nc1nc(Nc2ccccc2S(=O)(=O)C(C)C)c2cc[nH]c2n1` [Compound 1, 1-(4-((4-((2-(isopropylsulfonyl)phenyl)amino)-7H-pyrrolo[2,3-d]pyrimidin-2-yl)amino)-3-methoxyphenyl)piperidin-4-ol], the IC50 was 730 nM with HCC1937; more than 10000 nM in the series with BT-474; more than 10000 nM in the series on AU565; 190 nM in the series on MDA-MB-468; more than 10000 nM with T47D; more than 10000 nM in the series on MDA-MB-231. For the same molecule, the concentration for half-maximal inhibition (IC50) is 230 nM in the series with CAL-51; more than 10000 nM in the series with Sk-Br-3; 809 nM in [2] (setting [4]); 155 nM in series [2] (preliminary investigations); more than 10000 nM with Hs578T; 440 nM in the series on MCF-7. In addition, in [1], the “potency as compared to Mps1-IN-1” value is recorded as “significantly more potent”. In addition, the “anti-proliferative effect, selectivity toward TNBC cells” value in series [1] (preliminary studies of the initial series) is recorded as “moderate selectivity”. In addition, the “inhibition of normal breast epithelial cells” value in series [3] was “no inhibition or incomplete dose-response curves”.
Regarding `COc1cc(N2CCOCC2)ccc1Nc1nc(NC2CCCCC2)c2cc[nH]c2n1` [Compound 13, N4-cyclohexyl-N2-(2-methoxy-4-morpholinophenyl)-7H-pyrrolo[2,3-d]pyrimidine-2,4-diamine], the IC50 with HCC1937 was 1090 nM; in the series with BT-474, 50 nM; in the series with AU565, 900 nM; in the series on MDA-MB-468 it was 570 nM; in the series on T47D, more than 10000 nM; with MDA-MB-231, more than 10000 nM. Besides, the IC50 was 450 nM in the series with CAL-51; 780 nM in the series with Sk-Br-3; 356 nM in series [2] (setting [4]); 30 nM in [2] (preliminary investigations); more than 10000 nM with Hs578T; more than 10000 nM in the series on MCF-7. Moreover, in series [1], the “potency as compared to Mps1-IN-1” value was “significantly more potent”. For the same molecule, the “inhibition of normal breast epithelial cells” value in series [3] is “no inhibition or incomplete dose-response curves”.
